What was measured:
IRAK4 = molecular target: T1, IRAK4 (Homo sapiens, UniProt Q9NWZ3); test: IRAK-4 activity inhibition assay (Caliper); format: biochemical; conditions: 3.5 nM IRAK4, 1.5 μM Peptide 8, 37 μM ATP
T1 construct: purchased CARNA Bioscience 09-145
T1 sequence (Q9NWZ3 1-460): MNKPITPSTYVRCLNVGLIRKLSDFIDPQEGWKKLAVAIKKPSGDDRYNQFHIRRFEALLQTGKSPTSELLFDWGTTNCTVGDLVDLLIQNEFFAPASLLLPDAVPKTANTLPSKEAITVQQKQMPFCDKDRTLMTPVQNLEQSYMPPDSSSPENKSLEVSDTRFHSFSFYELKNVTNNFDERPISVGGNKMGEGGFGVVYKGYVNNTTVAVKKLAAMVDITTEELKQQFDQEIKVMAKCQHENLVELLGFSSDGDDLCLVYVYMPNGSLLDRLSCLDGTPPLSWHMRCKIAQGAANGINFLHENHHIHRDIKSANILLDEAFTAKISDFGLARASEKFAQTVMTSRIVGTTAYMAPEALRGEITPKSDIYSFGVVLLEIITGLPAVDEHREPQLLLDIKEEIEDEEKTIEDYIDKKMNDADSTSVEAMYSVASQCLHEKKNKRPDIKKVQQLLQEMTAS
How it was run: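 Mobility-shift (Caliper) assay with 3.5 nM IRAK4 in 50 mM HEPES pH 7.5, 0.0015% Brij-35, 5 mM MgCl2, 1 mM MnCl2, 2 mM DTT. Enzyme preincubated with compound 10 min at room temperature, then 1.5 μM peptide 8 and 37 μM ATP for 40 min. Inhibition from conversion % relative to DMSO and no-enzyme controls; 10-point IC50.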

[1] = system: IL8 production in THP-1 cells; test: LPS induced IL8 production assay in THP-1 cells; format: cell-based; conditions: Homo sapiens, 300 ng/mL LPS, measured at 16 hours
Procedure: Provided compounds were also assayed in an LPS (Lipopolysaccharide) or R848 (TLR-7 agonist) induced cytokine (TNFα and IL8) production assay in THP-1 cells, human white blood cells (hWBC), and human whole blood. The exemplary protocol for this assay in THP-1 cells was as follows below.
THP-1 cells from ATCC (TIB-202) were cultured in RPMI Medium 1640 (Invitrogen, Cat No. A10491-01), 10% fetal bovine serum (Invitrogen, Cat No. 10099141, Lot No. 8172882) containing 100 U/mL Penicillin, 100 μg/mL streptomycin (Invitrogen, Cat No. 15140-122), and 50 uM 2-Mercaptoethanol (Invitrogen, Cat No. 21985023). LPS-EK ultra pure (Invivogen, Cat No. tlrl-peklps) was used to induce IL8 and TNFα production, that was detected in the cell culture supernatant by IL8 HTRF kit (Cisbio, Cat No. 62IL8PEB) and TNFα HTRF kit (Cisbio, Cat No. 62TNFPEB), as per manufacturer instructions. Cells were cultured in 96 well assay plates at 100,000 cells per well, and compounds diluted in final 0.3% DMSO were pre-incubated with cells for 1 hour prior to stimulation with 300 ng/mL LPS. Cytokine production in cell supernatant was measured at 5 hours for TNFα production, and at 16 hours for IL8 production and assessment of cell viability.
The compound numbers correspond to the compound numbers in Table 1. Compounds having an activity designated as “A” provided an IC50≦0.5 μM; compounds having an activity designated as “B” provided an IC50 of 0.5-5.0 μM; compounds having an activity designated as “C” provided an IC50>5.0 μM. “NA” stands for “not assayed.”

| IC50 (IRAK4) [µM] | IC50 [1] [µM] | SMILES |
| --- | --- | --- |
| ≤ 5 | ≤ 0.5 | N#Cc1ccc2ncnc(N[C@H]3CC[C@H](N4CCC5(CC4)CC5)CC3)c2c1 [Compound I-7, 4-(((1r,4r)-4-(6-azaspiro[2.5]octan-6-yl)cyclohexyl)amino)-quinazoline-6-carbonitrile] |
| ≤ 5 | ≤ 0.5 | N#Cc1ccc2ncnc(N[C@H]3CC[C@H](N4CCOCC4)CC3)c2c1 [Compound I-3, 4-(((1r,4r)-4-morpholinocyclohexyl)amino)quinazoline-6-carbonitrile] |
